The target in the assay is T1, purified catalytic domain of recombinant human TACE (rhTACEc) (Homo sapiens, UniProt P78536, N452Q/S266A).
T1 construct: Residue 215 to 477 with two mutation (S266A and N452Q) and a 6×His tail; 6xHis (C); made in house; host or cells: baculovirus/Hi5 insect cells
Nature of the assay: TACE kinetic assay: cleavage of internally quenched peptide substrate SPDL-3, fluorescence. In kind it is biochemical. To be noted: TACE inhibitory activity, class symbols; read-out: Ki. How it is done: TACE activity is determined by a kinetic assay measuring the rate of increase in fluorescent intensity generated by TACE catalyzed cleavage of an internally quenched peptide substrate (SPDL-3). […] It is purified from the baculovirus/Hi5 cells expression system using affinity chromatography. […] MCA is (7-Methoxycoumarin-4-yl)acetyl. Dpa is N-3-(2,4-Dinitrophenyl)-L-2,3-diaminopropionyl.
A 50 μl assay mixture contains 20 mM HEPES, pH 7.3, 5 mM CaCl2, 100 μM ZnCl2, 2% DMSO, 0.04% Methylcellulose, 30 μM SPDL-3, 70 pM rhTACEc and a test compound. RhTACEc is pre-incubated with the testing compound for 90 min. at 25° C. Reaction is started by addition of the substrate. […] Rate of enzymatic reaction is shown as Units per second. Effect of a test compound is shown as % of TACE activity in the absence of the compound.

T1 sequence (P78536 215-477 S266A/N452Q): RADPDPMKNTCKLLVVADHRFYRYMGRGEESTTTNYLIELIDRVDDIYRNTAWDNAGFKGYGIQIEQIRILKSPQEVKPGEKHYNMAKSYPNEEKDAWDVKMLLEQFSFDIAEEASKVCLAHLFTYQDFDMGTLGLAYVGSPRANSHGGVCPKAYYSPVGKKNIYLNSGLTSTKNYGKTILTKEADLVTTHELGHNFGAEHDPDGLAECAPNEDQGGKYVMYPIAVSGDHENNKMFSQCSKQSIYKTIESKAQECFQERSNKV

`C[C@@H](NC(=O)[C@H](O)[C@@H](O)C(=O)N1CCCC1(C)c1nccs1)c1ccc(-n2cccn2)cc1` (stereo partly shown) [Compound 2251]: the Ki was < 0.02 µM.
Under `CNc1nc([C@H]2CCCN2C(=O)[C@H](O)[C@@H](O)C(=O)N[C@H](C)c2ccc(-n3cccn3)cc2)cs1` [Compound 2252] stands < 0.02 µM; under `CNc1nc([C@H]2CCCN2C(=O)[C@H](O)[C@@H](O)C(=O)NCC2CCN(c3ccc(F)cc3C#N)CC2)cs1` [Compound 2253], < 0.02 µM.
On to `C[C@@H](NC(=O)[C@H](O)[C@@H](O)C(=O)N1CC(C)(C)CC1(C)C)c1ccc(-n2cccn2)cc1` [Compound 2254], for which the Ki was in the range of 0.1 to 1 µM.
In the case of `C[C@@H](NC(=O)[C@H](O)[C@@H](O)C(=O)N1CCC[C@@H]1c1csc(N)n1)c1ccc(-n2cccn2)cc1` [Compound 2255], the Ki was < 0.02 µM.
The value for `CCNc1nc([C@H]2CCCN2C(=O)[C@H](O)[C@@H](O)C(=O)N[C@H](C)c2ccc(-n3cccn3)cc2)cs1` [Compound 2256] was < 0.02 µM; that for `CC(C)Nc1nc([C@H]2CCCN2C(=O)[C@H](O)[C@@H](O)C(=O)N[C@H](C)c2ccc(-n3cccn3)cc2)cs1` [Compound 2257] was < 0.02 µM; that for `C[C@@H](NC(=O)[C@H](O)[C@@H](O)C(=O)N1CCC[C@@H]1c1csc(N2CCCCC2)n1)c1ccc(-n2cccn2)cc1` [Compound 2258] was 0.02 to 0.1 µM.
The value for `C[C@@H](NC(=O)[C@H](O)[C@@H](O)C(=O)N1CCC[C@@H]1c1csc(Nc2cccnc2)n1)c1ccc(-n2cccn2)cc1` [Compound 2259] was < 0.02 µM; that for `C[C@@H](NC(=O)[C@H](O)[C@@H](O)C(=O)N1CCC[C@@H]1c1csc(N(C)C)n1)c1ccc(-n2cccn2)cc1` [Compound 2260] was 0.02 to 0.1 µM.
Under `CC(=O)N(C)c1nc([C@H]2CCCN2C(=O)[C@H](O)[C@@H](O)C(=O)N[C@H](C)c2ccc(-n3cccn3)cc2)cs1` [Compound 2261] stands < 0.02 µM.
As for `C[C@@H](NC(=O)[C@H](O)[C@@H](O)C(=O)N1CC=C[C@H]1c1cccc(Cl)c1)c1ccc(-n2cccn2)cc1` [Compound 2263], the Ki was 0.1 to 1 µM.
Under `C[C@@H](NC(=O)[C@H](O)[C@@H](O)C(=O)N1CC=C[C@@H]1c1cccc(Cl)c1)c1ccc(-n2cccn2)cc1` [Compound 2264] stands < 0.02 µM; under `C[C@@H](NC(=O)[C@H](O)[C@@H](O)C(=O)N1C[C@H](O)C[C@H]1c1cccc(Cl)c1)c1ccc(-n2cccn2)cc1` [Compound 2265], < 0.02 µM; under `C[C@@H](NC(=O)[C@H](O)[C@@H](O)C(=O)N1CC[C@H](O)[C@H]1c1cccc(Cl)c1)c1ccc(-n2cccn2)cc1` [Compound 2266], < 0.02 µM.
Under `C[C@@H](NC(=O)[C@H](O)[C@@H](O)C(=O)N1C[C@H](O)[C@H](O)[C@H]1c1cccc(Cl)c1)c1ccc(-n2cccn2)cc1` [Compound 2267] stands 0.1 to 1 µM; under `CNc1nc([C@H]2CCCN2C(=O)[C@H](O)[C@@H](O)C(=O)N[C@H](C)c2ccc(-n3cccn3)cc2)c(C)s1` [Compound 2268], < 0.02 µM; under `CNc1nc([C@H]2CCCN2C(=O)[C@H](O)[C@@H](O)C(=O)N[C@H](C)c2ccc(-n3cccn3)cc2)c(C#N)s1` [Compound 2269], < 0.02 µM.
In the case of `CCNc1nc([C@H]2C[C@@H](C)CN2C(=O)[C@H](O)[C@@H](O)C(=O)N[C@H](C)c2ccc(-n3cccn3)cc2)cs1` [Compound 2271], the inhibitory constant (Ki) was < 0.02 µM.
Regarding `C[C@@H](NC(=O)[C@H](O)[C@@H](O)C(=O)N1Cc2cccnc2C1)c1ccc(-n2cccn2)c(OCc2ccccc2)c1` [Compound 2304], the Ki was < 0.02 µM.
Under `C[C@@H](NC(=O)[C@H](O)[C@@H](O)C(=O)N1Cc2cccnc2C1)c1ccc(-n2cccn2)c(O)c1` [Compound 2305] stands < 0.02 µM; under `COc1cccc([C@@H](C)NC(=O)[C@H](O)[C@@H](O)C(=O)N2Cc3cccnc3C2)c1` [Compound 2306], > 1 µM.
Regarding `C[C@@H](NC(=O)[C@H](O)[C@@H](O)C(=O)N1Cc2cccnc2C1)c1cccc(O)c1` [Compound 2307], the inhibition constant Ki was > 1 µM.
The value for `C[C@@H](NC(=O)[C@H](O)[C@@H](O)C(=O)N1Cc2cccnc2C1)c1cccc(OCc2ccccc2)c1` [Compound 2308] was > 1 µM.
Under `CCOc1ncccc1-c1ccc(CNC(=O)[C@H](O)[C@@H](O)C(=O)N2CCC[C@@H]2c2cccc(Cl)c2)cc1` [Compound 2334] stands < 0.02 µM; under `CCOc1ncccc1-c1ccc(CNC(=O)[C@H](O)[C@@H](O)C(=O)N2CCCC2)cc1` [Compound 2335], 0.1 to 1 µM; under `O=C(NCc1ccc(-c2ccc(F)cc2OCC(F)(F)F)cc1)[C@H](O)[C@@H](O)C(=O)N1CCCC1` [Compound 2337], 0.02 to 0.1 µM.
Under `O=C(NCc1ccc(-c2ccccc2OCCC2CCCCC2)cc1)[C@H](O)[C@@H](O)C(=O)N1CCCC1` [Compound 2338] stands < 0.02 µM.
For the molecule `O=C(NCc1ccc(-c2ccccc2OCCC2CCCC2)cc1)[C@H](O)[C@@H](O)C(=O)N1CCCC1` [Compound 2339], the Ki was 0.02 to 0.1 µM.
Under `O=C(NCc1ccc(-c2ccccc2OCC2CCCC2)cc1)[C@H](O)[C@@H](O)C(=O)N1CCCC1` [Compound 2340] stands 0.02 to 0.1 µM; under `O=C(NCc1ccc(-c2ccc(F)cc2OCCC2CCCCC2)cc1)[C@H](O)[C@@H](O)C(=O)N1CCCC1` [Compound 2342], 0.1 to 1 µM; under `O=C(NCc1ccc(-c2ccccc2OCCN2CCOCC2)cc1)[C@H](O)[C@@H](O)C(=O)N1CCCC1` [Compound 2343], > 1 µM.
The value for `COc1nc(CNC(=O)[C@H](O)[C@@H](O)C(=O)N2CCCC2)ccc1-c1ccccc1OC(F)(F)F` [Compound 2346] was > 1 µM.
Under `O=C(NCc1ccc(-c2ccccc2OC(F)(F)F)c[n+]1[O-])[C@H](O)[C@@H](O)C(=O)N1CCCC1` [Compound 2347] stands > 1 µM; under `O=C(NCc1ccc(-c2ccccc2OC(F)(F)F)c[n+]1[O-])[C@H](O)[C@@H](O)C(=O)N1Cc2ccccc2C1` [Compound 2348], 0.1 to 1 µM; under `CCOc1cc(F)ccc1-c1ccc(CNC(=O)[C@H](O)[C@@H](O)C(=O)N2CCCC2)nc1` [Compound 2349], < 0.02 µM.
In the case of `O=C(NCc1ccc(-c2ccccc2OC(F)(F)F)cn1)[C@H](O)[C@@H](O)C(=O)N1CCCC1` [Compound 2350], the inhibition constant (Ki) is < 0.02 µM.
As for `O=C(NC[C@H]1CC[C@H](n2c(C(F)(F)F)nc3ccccc32)CC1)[C@H](O)[C@@H](O)C(=O)N1CCC[C@@H]1c1ccccc1` [Compound 2351], the inhibitory constant (Ki) is < 0.02 µM.
Turning to `O=C(NC[C@H]1CC[C@@H](n2c(C(F)(F)F)nc3ccccc32)CC1)[C@H](O)[C@@H](O)C(=O)N1CCC[C@@H]1c1ccccc1` [Compound 2352], the inhibition constant Ki is < 0.02 µM.
Under `C[C@@H](NC(=O)[C@](C)(O)[C@@H](O)C(=O)N1Cc2cccnc2C1)c1ccc(-c2cccc(OCCC3CCCCC3)c2)cc1` [Compound 2353A] stands 0.1 to 1 µM; under `C[C@@H](NC(=O)[C@H](O)[C@@H](O)C(=O)N1Cc2cccnc2C1)c1ccc(-c2cccc(OCCC3CCCCC3)c2)cc1` [Compound 2353B], 0.02 to 0.1 µM.
Under `C[C@@H](NC(=O)[C@](C)(O)[C@@H](O)C(=O)N1Cc2cccnc2C1)c1ccc(-n2cccc2C#N)cc1` [Compound 2354] stands 0.02 to 0.1 µM.
Under `COc1cc([C@@H](C)NC(=O)[C@](C)(O)[C@@H](O)C(=O)N2Cc3cccnc3C2)ccc1-n1cccn1` [Compound 2355] stands < 0.02 µM.
Regarding `COc1cc([C@@H](C)NC(=O)[C@](C)(O)[C@@H](O)C(=O)N2Cc3cccnc3C2)ccc1Br` [Compound 2356], the Ki is > 1 µM.
Under `C[C@@H](NC(=O)[C@](C)(O)[C@@H](O)C(=O)N1Cc2cccnc2C1)c1ccc(-n2cccn2)c(OCc2ccccc2)c1` [Compound 2357] stands < 0.02 µM; under `C[C@@H](NC(=O)[C@](C)(O)[C@@H](O)C(=O)N1Cc2cccnc2C1)c1ccc(-n2cccn2)c(OCC2CC2)c1` [Compound 2358], 0.1 to 1 µM.
The value for `CC#CCOc1cc([C@@H](C)NC(=O)[C@H](O)[C@@H](O)C(=O)N2Cc3cccnc3C2)ccc1-n1cccn1` [Compound 2359] was < 0.02 µM; that for `CC#CCOc1cc([C@@H](C)NC(=O)[C@](C)(O)[C@@H](O)C(=O)N2Cc3cccnc3C2)ccc1-n1cccn1` [Compound 2360] was < 0.02 µM; that for `Cn1c(Cc2ccccc2)cnc1[C@H](O)[C@@H](O)C(=O)NCC1CCN(c2ccc(F)cc2C#N)CC1` [Compound 2365] was 0.1 to 1 µM.
The value for `Cn1c(Br)cnc1[C@H](O)[C@@H](O)C(=O)NCC1CCN(c2ccc(F)cc2C#N)CC1` [Compound 2372] was > 1 µM.
For the molecule `Cn1cnnc1[C@H](O)[C@@H](O)C(=O)NCC1CCN(c2ccc(F)cc2C#N)CC1` [Compound 2376], the Ki is > 1 µM.
The value for `N#Cc1cc(F)ccc1N1CCC(CNC(=O)[C@H](O)[C@@H](O)c2ccccn2)CC1` [Compound 2382] was > 1 µM; that for `N#Cc1cc(F)ccc1N1CCC(CNC(=O)[C@H](O)[C@@H](O)c2cnccn2)CC1` [Compound 2387] was > 1 µM; that for `O=C([C@H](O)[C@@H](O)c1cncc(-c2ccccc2)n1)N1Cc2ccccc2C1` [Compound 2391] was > 1 µM.
Under `O=C([C@H](O)[C@@H](O)c1cncc(N2CCN(c3ccccc3)CC2)n1)N1Cc2ccccc2C1` [Compound 2393] stands > 1 µM.
